Results: article PMC13198257, “An aerosolized dual-action autotaxin inhibitor-PPARγ agonist for the treatment of pulmonary fibrosis” (Cell Reports Medicine, 2026)

System: lung gene expression
Assay: RNA sequencing of lung tissue (BLM/EL244 vs BLM)
Assay type: in vivo, mouse
Method: RNA quality was assessed using an Agilent TapeStation 4150 with the High Sensitivity […] ScreenTape (Agilent), according to the manufacturer’s protocols. For library preparation, the QuantSeq 3’mRNA-Seq Library Prep Kit (Lexogen) was used according to manufacturer’s instructions. Briefly, 500 ng of RNA from each sample was used for first-strand synthesis, followed by RNA template removal, and second-strand synthesis initiated by random primers. In-line barcodes were introduced at this step, and this was followed by magnetic bead-based purification. The resulting libraries were amplified for 15 cycles and re-purified, with quantity and quality assessed on a Qubit 4 Fluorometer with the Invitrogen Qubit dsDNA HS Assay and an Agilent Tapestation 4150 with the High Sensitivity D1000 assay kit, respectively. The quantified libraries were pooled equimolarly; 50ng of total library mix was used for Adapter Conversion PCR Amplification using the Universal Library Conversion Kit (App-A), Version: V1.0 (MGI Tech Co., Ltd.), according to the manufacturer’s instructions.
The quantity and quality of the purified adapter conversion PCR (AC-PCR) product were evaluated on a Qubit 4 Fluorometer with the Invitrogen Qubit dsDNA HS Assay and on an Agilent Tapestation 4150 with the High Sensitivity D1000 assay kit, respectively. This was followed by DNA denaturation, Single-Strand Circularisation, Enzymatic Digestion, Enzymatic Digestion Product Cleanup and Quality Control steps on 1 pmol of AC-PCR product, according to the Universal Library Conversion Kit (App-A) User Manual (Version: A3).
Finally, 60 fmol of ssCirDNA were used for DNB preparation and sequencing on a DNBSEQ-G400 platform at the BSRC Alexander Fleming Genomics Facility, using a G400 App-A FCS SE100 High-throughput Sequencing Set (MGI Tech Co., Ltd.), according to the manufacturer’s instructions.
Alignment of the FASTQ files was performed against the mouse genome build mm10 using a custom Bash script.[143] Read counting on the 3′ UTRs and differential expression analysis were conducted using the metaseqR2 bioconductor package.[144] Genes corresponding to the following biotypes were excluded: polymorphic_pseudogene, processed_transcript, pseudogene, IG_V_pseudogene, misc_RNA, IG_C_gene, IG_J_gene, IG_D_gene, IG_LV_gene, TR_V_gene, TR_V_pseudogene, TEC, and processed_pseudogene. Gene counts were normalized with DESEQ[145] through metaseqR2. Genes with more than 10 counts in at least 50% of the samples were kept for further processing. For differential expression analysis, the PANDORA algorithm[146] was used to estimate a meta p-value integrating the results from the DESEQ, DESEQ2,[147] edgeR,[148] limma,[149] NBPSeq,[150] and NOISeq[151] algorithms. All additional parameters were set to default values.
Pathway enrichment analysis was performed for the Gene Ontology Biological process (BP) and Molecular Function (MF) terms through GeneCodis 4.[152] The volcano plots, scatterplots, Venn diagrams, and dot plots were generated using the ggplot2 Bioconductor package.

O=C1NC(=O)C(Cc2ccc(OCCC3CCN(C(=O)OCc4cc(Cl)cc(Cl)c4)CC3)cc2)S1 (stereo not drawn) [EL244, 3,5-dichlorobenzyl 4-(2-(4-((2,4-dioxothiazolidin-5-yl)methyl)phenoxy)ethyl)piperidine-1-carboxylate]
Rbm24 nFC (BLM/EL244 vs BLM, lung tissue): 2.29
Rdh12 log2 nFC (BLM/EL244 vs BLM, lung tissue): 1.74
Rdh12 nFC (BLM/EL244 vs BLM, lung tissue): 3.34
Retnlg log2 nFC (BLM/EL244 vs BLM, lung tissue): 1.46
Retnlg nFC (BLM/EL244 vs BLM, lung tissue): 2.74
Ryr2 log2 nFC (BLM/EL244 vs BLM, lung tissue): 2.14
Ryr2 nFC (BLM/EL244 vs BLM, lung tissue): 4.39
S1pr5 log2 nFC (BLM/EL244 vs BLM, lung tissue): 1.64
S1pr5 nFC (BLM/EL244 vs BLM, lung tissue): 3.12
S100a8 log2 nFC (BLM/EL244 vs BLM, lung tissue): 1.52
S100a8 nFC (BLM/EL244 vs BLM, lung tissue): 2.86
S100a9 log2 nFC (BLM/EL244 vs BLM, lung tissue): 2.11
S100a9 nFC (BLM/EL244 vs BLM, lung tissue): 4.32
Scel log2 nFC (BLM/EL244 vs BLM, lung tissue): 1.31
Scel nFC (BLM/EL244 vs BLM, lung tissue): 2.47
Shank3 log2 nFC (BLM/EL244 vs BLM, lung tissue): 1.61
Shank3 nFC (BLM/EL244 vs BLM, lung tissue): 3.05
Slc38a4 log2 nFC (BLM/EL244 vs BLM, lung tissue): 1.12
Slc38a4 nFC (BLM/EL244 vs BLM, lung tissue): 2.17
Sln log2 nFC (BLM/EL244 vs BLM, lung tissue): 2.01
Sln nFC (BLM/EL244 vs BLM, lung tissue): 4.02
Smad6 log2 nFC (BLM/EL244 vs BLM, lung tissue): 1.18
Smad6 nFC (BLM/EL244 vs BLM, lung tissue): 2.26
Smpx log2 nFC (BLM/EL244 vs BLM, lung tissue): 2.34
Smpx nFC (BLM/EL244 vs BLM, lung tissue): 5.08
Smyd1 log2 nFC (BLM/EL244 vs BLM, lung tissue): 1.73
Smyd1 nFC (BLM/EL244 vs BLM, lung tissue): 3.32
Snhg11 log2 nFC (BLM/EL244 vs BLM, lung tissue): 1.40
Snhg11 nFC (BLM/EL244 vs BLM, lung tissue): 2.64
Snx21 log2 nFC (BLM/EL244 vs BLM, lung tissue): 1.15
Snx21 nFC (BLM/EL244 vs BLM, lung tissue): 2.21
Sox18 log2 nFC (BLM/EL244 vs BLM, lung tissue): 1.91
Sox18 nFC (BLM/EL244 vs BLM, lung tissue): 3.76
Spink5 log2 nFC (BLM/EL244 vs BLM, lung tissue): 1.36
Spink5 nFC (BLM/EL244 vs BLM, lung tissue): 2.57
Tbata log2 nFC (BLM/EL244 vs BLM, lung tissue): 1.72
Tbata nFC (BLM/EL244 vs BLM, lung tissue): 3.30
Tcap log2 nFC (BLM/EL244 vs BLM, lung tissue): 1.73
Tcap nFC (BLM/EL244 vs BLM, lung tissue): 3.32
Tex11 log2 nFC (BLM/EL244 vs BLM, lung tissue): 1.83
Tex11 nFC (BLM/EL244 vs BLM, lung tissue): 3.55
Tmem182 log2 nFC (BLM/EL244 vs BLM, lung tissue): 2.26
Tmem182 nFC (BLM/EL244 vs BLM, lung tissue): 4.78
Tmem132d log2 nFC (BLM/EL244 vs BLM, lung tissue): 2.38
Tmem132d nFC (BLM/EL244 vs BLM, lung tissue): 5.19
Tnnc1 log2 nFC (BLM/EL244 vs BLM, lung tissue): 2.18
Tnnc1 nFC (BLM/EL244 vs BLM, lung tissue): 4.53
Tnni3 log2 nFC (BLM/EL244 vs BLM, lung tissue): 2.31
Tnni3 nFC (BLM/EL244 vs BLM, lung tissue): 4.95
Tnnt2 log2 nFC (BLM/EL244 vs BLM, lung tissue): 1.77
Tnnt2 nFC (BLM/EL244 vs BLM, lung tissue): 3.42
Ttn log2 nFC (BLM/EL244 vs BLM, lung tissue): 2.53
Ttn nFC (BLM/EL244 vs BLM, lung tissue): 5.78
Upk3b log2 nFC (BLM/EL244 vs BLM, lung tissue): 1.53
Upk3b nFC (BLM/EL244 vs BLM, lung tissue): 2.88
Xndc1 log2 nFC (BLM/EL244 vs BLM, lung tissue): 1.14
Xndc1 nFC (BLM/EL244 vs BLM, lung tissue): 2.21
Zbtb16 log2 nFC (BLM/EL244 vs BLM, lung tissue): 1.33
Zbtb16 nFC (BLM/EL244 vs BLM, lung tissue): 2.51
Zmynd10 log2 nFC (BLM/EL244 vs BLM, lung tissue): 1.28
Zmynd10 nFC (BLM/EL244 vs BLM, lung tissue): 2.44
1810010H24Rik log2 nFC BLM/EL244 vs BLM (DEG 1810010H24Rik, nFC: normalised fold change): 0.90
1810020O05Rik log2 nFC BLM/EL244 vs BLM (DEG 1810020O05Rik, nFC: normalised fold change): 1.58
2410004I01Rik log2 nFC BLM/EL244 vs BLM (DEG 2410004I01Rik, nFC: normalised fold change): 1.80
9330159F19Rik log2 nFC BLM/EL244 vs BLM (DEG 9330159F19Rik, nFC: normalised fold change): 1.78
9530026P05Rik log2 nFC BLM/EL244 vs BLM (DEG 9530026P05Rik, nFC: normalised fold change): 3.17
A3galt2 log2 nFC BLM/EL244 vs BLM (DEG A3galt2, nFC: normalised fold change): 2.32
log2 nFC BLM/EL244 vs BLM (DEG AA467197): -1.39
Abca8a log2 nFC BLM/EL244 vs BLM (DEG Abca8a, nFC: normalised fold change): 0.75
Abi3bp log2 nFC BLM/EL244 vs BLM (DEG Abi3bp, nFC: normalised fold change): 1.00
Acaa1b log2 nFC BLM/EL244 vs BLM (DEG Acaa1b, nFC: normalised fold change): 1.43
Acbd4 log2 nFC BLM/EL244 vs BLM (DEG Acbd4, nFC: normalised fold change): 0.86
Acot1 log2 nFC BLM/EL244 vs BLM (DEG Acot1, nFC: normalised fold change): 1.08
Acoxl log2 nFC BLM/EL244 vs BLM (DEG Acoxl, nFC: normalised fold change): 1.23
Actc1 log2 nFC BLM/EL244 vs BLM (DEG Actc1, nFC: normalised fold change): 1.28
Adam3 log2 nFC BLM/EL244 vs BLM (DEG Adam3, nFC: normalised fold change): 1.67
log2 nFC BLM/EL244 vs BLM (DEG Adam12): -1.57
log2 nFC BLM/EL244 vs BLM (DEG Adamts12): -1.47
Adh7 log2 nFC BLM/EL244 vs BLM (DEG Adh7, nFC: normalised fold change): 1.02
Alas2 log2 nFC BLM/EL244 vs BLM (DEG Alas2, nFC: normalised fold change): 1.58
Aldh1a1 log2 nFC BLM/EL244 vs BLM (DEG Aldh1a1, nFC: normalised fold change): 0.78
log2 nFC BLM/EL244 vs BLM (DEG Ankrd37): -1.50
Ankrd44 log2 nFC BLM/EL244 vs BLM (DEG Ankrd44, nFC: normalised fold change): 0.84
Ankrd63 log2 nFC BLM/EL244 vs BLM (DEG Ankrd63, nFC: normalised fold change): 1.34
Aox3 log2 nFC BLM/EL244 vs BLM (DEG Aox3, nFC: normalised fold change): 1.07
Aqp9 log2 nFC BLM/EL244 vs BLM (DEG Aqp9, nFC: normalised fold change): 1.66
Ar log2 nFC BLM/EL244 vs BLM (DEG Ar, nFC: normalised fold change): 1.04
Arhgap28 log2 nFC BLM/EL244 vs BLM (DEG Arhgap28, nFC: normalised fold change): 1.14
Arhgef38 log2 nFC BLM/EL244 vs BLM (DEG Arhgef38, nFC: normalised fold change): 0.87
Arl4a log2 nFC BLM/EL244 vs BLM (DEG Arl4a, nFC: normalised fold change): 0.70
log2 nFC BLM/EL244 vs BLM (DEG Armcx4): -1.32
Arrdc2 log2 nFC BLM/EL244 vs BLM (DEG Arrdc2, nFC: normalised fold change): 1.24
Asgr1 log2 nFC BLM/EL244 vs BLM (DEG Asgr1, nFC: normalised fold change): 1.80
Atp2a3 log2 nFC BLM/EL244 vs BLM (DEG Atp2a3, nFC: normalised fold change): 0.83
Atp6v1c2 log2 nFC BLM/EL244 vs BLM (DEG Atp6v1c2, nFC: normalised fold change): 1.03
Baiap3 log2 nFC BLM/EL244 vs BLM (DEG Baiap3, nFC: normalised fold change): 1.24
Bbof1 log2 nFC BLM/EL244 vs BLM (DEG Bbof1, nFC: normalised fold change): 1.11
log2 nFC BLM/EL244 vs BLM (DEG Bcl2a1d): -1.29
Bex2 log2 nFC BLM/EL244 vs BLM (DEG Bex2, nFC: normalised fold change): 1.46
Bmp6 log2 nFC BLM/EL244 vs BLM (DEG Bmp6, nFC: normalised fold change): 1.07
Bpifa1 log2 nFC BLM/EL244 vs BLM (DEG Bpifa1, nFC: normalised fold change): 1.12
log2 nFC BLM/EL244 vs BLM (DEG C1qa): -1.44
log2 nFC BLM/EL244 vs BLM (DEG C1qb): -1.51
log2 nFC BLM/EL244 vs BLM (DEG C1qc): -1.56
log2 nFC BLM/EL244 vs BLM (DEG C1qtnf6): -1.38
log2 nFC BLM/EL244 vs BLM (DEG C3ar1): -1.58
C130080G10Rik log2 nFC BLM/EL244 vs BLM (DEG C130080G10Rik, nFC: normalised fold change): 3.58
Car3 log2 nFC BLM/EL244 vs BLM (DEG Car3, nFC: normalised fold change): 1.57
Casq2 log2 nFC BLM/EL244 vs BLM (DEG Casq2, nFC: normalised fold change): 2.36
Cbr2 log2 nFC BLM/EL244 vs BLM (DEG Cbr2, nFC: normalised fold change): 0.91
Ccdc153 log2 nFC BLM/EL244 vs BLM (DEG Ccdc153, nFC: normalised fold change): 0.79
Ccdc171 log2 nFC BLM/EL244 vs BLM (DEG Ccdc171, nFC: normalised fold change): 1.04
log2 nFC BLM/EL244 vs BLM (DEG Ccl2): -1.43
log2 nFC BLM/EL244 vs BLM (DEG Ccl8): -1.54
